Read-outs that look alike come from different tables or passages of the source.
Experiments:
pKa of the amines = type: physicochemical; details: in 50/50 methanol/water; acid titration using glass electrode
From the text: ^(1) pKa values in water from Patai, S., "The Chemistry of Amino
Groups,", Interscience Publishers, New York, New York (1968), Chapter 4.
^(2) pKa values in 50/50 methanol/water determined by acid
titration using glass electrode.

[1] = activity in anthrone reoxidation (disappearance of 2-butylanthrone in fortified working solution under oxygen; liquid chromatography); details: 0.1 weight % amine, 60° C.; for % Original Amount Remaining After 24 Hours: 2-Butylanthrone: 2 weight % 2-butylanthrone, control (no amine) 76
[2] = amine stability to oxidation under plant extraction-stage conditions (35 weight % aqueous hydrogen peroxide, 60° C., 24 hours; gas chromatography); details: 0.1 weight % amine in working solution, shaken with equal volume 35 weight % aqueous hydrogen peroxide
[3] = cited from earlier work
[4] = 35% aqueous hydrogen peroxide
[5] = pilot plant cyclic anthraquinone process with amine addition
Procedure: A pilot plant facility, sized to be approximately 1/1000 that of a commercial unit, was charged with 1.5M lbs. of working solution withdrawn from the commercial unit. The working solution comprised a mixture of butyl and amyl anthraquinones and tetrahydroanthraquinones dissolved in a Cyclosol®/diisobutylcarbinol solvent. Using plant Pd/Al2 O3 slurry catalyst in the hydrogenator, operation of the pilot plant was commenced with a working solution flow of about 1.5 g.p.m. and at about 50° C. The average titer of the reduced working solution leaving the hydrogenator was about 38. "Titer" is an industrial term used as a measure of the depth or degree of reduction of the working solution, that is, the amount of hydroquinone formed expressed as LB. MOLS/10,000 gallons of working solution. Thirty-eight titer represents driving conditions for a commercial facility which is usually operated at 32 titer or less. As operating titer is increased, experience has shown that hydrogen peroxide production is increased but at the expense of increased quinone degradation and quinone use.
Over an initial operating period of two months in the pilot plant without amine addition, the anthrone content of the working solution increased steadily from 0.2 wt. % to 0.7 wt. % and was accompanied by a corresponding decrease in the quinone content of the working solution. Then, 0.05 wt. % of N,N-di-n-butylaniline was added to the pilot plant working solution hold tank. Over the next 36 hours a rapid drop in the anthrone content to about 0.2 wt. % was observed.
Operation of the pilot plant was continued at the 38 titer level for a further four and a half months with a daily production of about 250 lbs. hydrogen peroxide. The N,N-di-n-butylaniline content of the working solution was maintained at about 0.03 wt. % by means of small daily additions. […] Other operating parameters such as yield and product quality were unaffected.

[6] = in water, from Patai, The Chemistry of Amino Groups (1968), Chapter 4

pKa (pKa of the amines) | % Original Amount Remaining After 24 Hours: 2-Butylanthrone [1] | % Original Amount Remaining After 24 Hours: Amine [2] | SMILES | also measured
5.0 | 36% | 86% | CCCCCCN(CCCCCC)c1ccccc1 [Example 6, N,N--Di-n-hexyl-aniline] | 
6.2 | 8% | 61% | CCCCN(CCCC)c1ccc(C)c(C)c1 [Example 12, N,N--Di-n-butyl-3,4-dimethylaniline] | 
5.8 | 10% | 71% | CCCCN(CCCC)c1ccc(C)cc1 [Example 10, N,N--Di-n-butyl-4-methylaniline] | 
5.6 | 11% | 68% | CCCCCCCCc1ccc(N(CCCC)CCCC)cc1 [Example 9, N,N--Di-n-butyl-4-octylaniline] | 
6.0 | 5% | 55% | CCN(CC)c1cccc(C)c1 [Example 11, N,N--Diethyl-3-methylaniline] | 
 | 82% | 96% | c1ccc(Nc2ccccc2)cc1 [Example 3, Diphenylamine, reference compound] | pKa [3, 6]: 0.9
 |  |  | Cc1cccc(N)c1 [Example 2, m-Toluidine] | % Original Amount Remaining After 24 Hours: Amine [4]: 7%; pKa ([3]; water): 4.7
5.2 | 13% | 76% | CCCCN(CCCC)c1ccccc1 [Example 7, N,N-di-n-butylaniline] | anthrone content of the working solution after amine addition ([5]; 0.05 wt. % amine added, over the next 36 hours, from 0.7 wt. %, about 50° C., titer about 38): about 0.2 wt. %; hydrogenation activity ([5]; after addition of 0.05 wt. % amine): An improvement in hydrogenation activity was also noted; loss of quinones ([5]; amine maintained at about 0.03 wt. %, four and a half months, 38 titer): no measurable loss of quinones; pKa [3, 6]: 6.2
 | 64% | 83% | c1ccc(CN(Cc2ccccc2)Cc2ccccc2)cc1 [Example 4, Tribenzylamine, reference compound] | 
5.3 | 15% | 43% | CCN(CC)c1ccccc1C [Example 8, N,N--Diethyl-2-methylaniline] | 

SMILES | pKa (pKa of the amines) | % Original Amount Remaining After 24 Hours: 2-Butylanthrone [1] | % Original Amount Remaining After 24 Hours: Amine [2] | also measured
CCCCN(CCCC)CCCC [Example 5, Tributylamine, reference compound] |  | 0% | 2% | pKa [3, 6]: 10.9; Reaction was complete in (time) ([1]; 2-butylanthrone reoxidation): three
